According to PubChem BioAssay (NCI):
Where “and” joins values, the source holds several entries; their conditions need not be identical. Equal entries are not always repeated.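 Test compounds were applied to cells in 96-well plates for 48 hours at 5 doses. GI50: concentration for 50% inhibition of growth. TGI is the concentration that stops growth completely.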

How the values were obtained:
Experiment in all cases: NCI anticancer screen, dose series, 48 h
T-47D breast = test system: T-47D breast
HCT-15 colon = test system: HCT-15 colon
SK-MEL-2 melanoma = test system: SK-MEL-2 melanoma
LOX IMVI melanoma = test system: LOX IMVI melanoma
EKVX NSCLC = test system: EKVX NSCLC
SNB-75 CNS = test system: SNB-75 CNS
NCI-H226 lung = test system: NCI-H226 lung
OVCAR-5 ovarian = test system: OVCAR-5 ovarian
SN12C renal = test system: SN12C renal
A549 NSCLC = test system: A549 NSCLC

SMILES | GI50 (T-47D breast) | TGI (T-47D breast) | GI50 (HCT-15 colon) | TGI (HCT-15 colon) | GI50 (SK-MEL-2 melanoma) | TGI (SK-MEL-2 melanoma) | GI50 (LOX IMVI melanoma) | TGI (LOX IMVI melanoma) | GI50 (EKVX NSCLC) | TGI (EKVX NSCLC) | GI50 (SNB-75 CNS) | TGI (SNB-75 CNS) | GI50 (NCI-H226 lung) | TGI (NCI-H226 lung) | GI50 (OVCAR-5 ovarian) | TGI (OVCAR-5 ovarian) | GI50 (SN12C renal) | TGI (SN12C renal) | GI50 (A549 NSCLC) | TGI (A549 NSCLC)
N#C/C(=C\c1cc2ccc(N3CCC3)cc2oc1=O)C(=O)N(CC(=O)O)CC(=O)O | > 100 µM | > 100 µM | 95.5 µM | > 100 µM | > 100 µM | > 100 µM | > 100 µM | > 100 µM | > 100 µM | > 100 µM | > 100 µM | > 100 µM | > 100 µM | > 100 µM | > 100 µM | > 100 µM | > 100 µM | > 100 µM | > 100 µM | > 100 µM
COc1cc(-c2ncn(/C=C\c3nnco3)n2)cc(C(F)(F)F)c1 | 0.571 µM | > 59.9 µM | 0.282 µM | > 100 µM | 0.0617 µM | 1.15 µM | 0.0906 µM | 2.02 µM | 4.66 µM | > 100 µM | 0.0863 µM | 4.73 µM | 0.0312 µM | 4.3 µM | 1.78 µM | > 100 µM | 0.723 µM | > 83.2 µM | 0.109 µM | > 68 µM
COc1ccc2c(c1)C(=O)c1c-2c(=O)n(CCCN(C)C)c2cc(OC)c(OC)cc12 | > 100 µM | > 100 µM | 12.6 µM | 27.4 µM | > 100 µM | > 100 µM | 1.6 µM | 15.6 µM | 16.5 µM | 30.7 µM | 10.1 µM | 23 µM | 3.39 µM | > 100 µM | 20.3 µM | 35.7 µM | 2.18 µM | 16.6 µM | 7.03 µM | 22 µM
CCOC(=O)C(Cc1ccc(N(CCCl)CCCl)cc1)NC(=O)C(Cc1ccccc1)NC(C)=O (stereo not drawn) | – | > 0.928 µM | – | > 1 µM | – | > 0.36 µM | – | > 0.386 µM | – | > 0.538 µM | – | > 1 µM | – | > 1 µM | – | > 0.435 µM | – | > 0.296 µM | – | > 1 µM
COC1=C(OC)C(=O)C(CCCCCCCCCCO)=C(C)C1=O | 2.44 µM | 7.43 µM | 8.81 µM | 24.5 µM | 3.2 µM | 8.1 µM | 0.964 µM | 9.72 µM | 5.89 µM | 21.8 µM | 12.1 µM | 28 µM | 13.8 µM | 29.9 µM | 10.7 µM | 25.5 µM | 7.39 µM | 24.4 µM | 15.3 µM | 34.8 µM
COc1ccc(S(=O)(=O)N2CCNCC2)cc1OC | > 100 µM | > 100 µM | > 100 µM | > 100 µM | > 100 µM | > 100 µM | > 100 µM | > 100 µM | > 100 µM | > 100 µM | > 100 µM | > 100 µM | > 100 µM | > 100 µM | > 100 µM | > 100 µM | > 100 µM | > 100 µM | > 100 µM | > 100 µM
O=S(=O)(NCCCNc1cc(-c2cn(-c3ccccc3)nc2-c2cccc(O)c2)ccn1)c1ccc(F)cc1 | 2.89 µM | 8.76 µM | 2.45 µM | 7.9 µM | 2.79 µM | 9.14 µM | 3 µM | 10.7 µM | 3.92 µM | 64.4 µM | 3.47 µM | 16 µM | 4.49 µM | 21.6 µM | 3.33 µM | 33.5 µM | 4.32 µM | 28.2 µM | 5.11 µM | 21 µM
COc1c(CC=C(C)C)c(O)c(C(CC(C)C)c2c(O)c(CC=C(C)C)c(O)c(C(C)=O)c2O)c(O)c1C(C)=O (stereo not drawn) | – | 16 µM | – | 2.62 µM | – | 1.94 µM | – | 3.59 µM | – | 11.4 µM | – | 8.32 µM | – | 10.6 µM | – | 19.7 µM | – | 6.84 µM | – | 12.1 µM
N#Cc1c(NC(=O)c2ccccc2F)sc2c1CCCC2 | > 25 µM | > 25 µM | 21.1 µM | > 25 µM | > 25 µM | > 25 µM | > 25 µM | > 25 µM | > 25 µM | > 25 µM | > 21.7 µM | > 25 µM | > 25 µM | > 25 µM | > 25 µM | > 25 µM | > 25 µM | > 25 µM | > 25 µM | > 25 µM
CC1=NNC(=S)NCCCN2CCN(CCCNC(=S)NN=C(C)C=NNC(=S)NCCCN3CCN(CCCNC(=S)NN=C1)CC3)CC2 | – | > 100 µM | – | > 100 µM | – | > 100 µM | – | > 100 µM | – | > 100 µM | – | > 100 µM | – | > 100 µM | – | > 100 µM | – | > 100 µM | – | > 100 µM
c1ccc(CN2COc3c(ccc4c5c(ccc34)CN(Cc3ccccc3)CO5)C2)cc1 | – | > 100 µM | – | > 100 µM | – | > 100 µM | – | > 100 µM | – | > 100 µM | – | > 100 µM | – | > 100 µM | – | > 100 µM | – | > 100 µM | – | > 100 µM
NC(=O)CC(N)c1nn[nH]n1 (stereo not drawn) | – | > 100 µM | – | > 100 µM | – | > 100 µM | – | > 100 µM | – | > 100 µM | – | > 100 µM | – | > 100 µM | – | > 100 µM | – | > 100 µM | – | > 100 µM
COc1c(OC(C)C)cc2cc(O)c(C(=O)NC3Cc4ccc(c(Cl)n4)O[C@@H]4C=C5C#C/C(=C\C#CC6OC56C4OC4CC(C)(O)C(O)C(C)O4)C(OC4CC(O)C(N(C)C)C(C)O4)COC3=O)cc2c1OC (stereo partly drawn) | – | > 36.3 µM | > 36.3 µM and 9.57 µg/mL | > 36.3 µM and 37.5 µg/mL | 10 µg/mL | > 36.3 µM and 31.8 µg/mL | 0.529 µg/mL | 17.8 µg/mL | > 36.3 µM and 37.5 µg/mL | > 36.3 µM and 37.5 µg/mL | 4.43 µg/mL | > 36.3 µM and 19.1 µg/mL | 2.8 µg/mL | > 36.3 µM and 37.5 µg/mL | > 36.3 µM and 4.02 µg/mL | > 36.3 µM and 27.5 µg/mL | 17.7 µM and 0.718 µg/mL | > 36.3 µM and 9.82 µg/mL | > 36.3 µM and 0.798 µg/mL | > 36.3 µM and 37.5 µg/mL
O=c1[nH]c2ccccc2n1C1CCN(CCCC(c2ccc(F)cc2)c2ccc(F)cc2)CC1 | 1.06 µM and 4.22 µM | 2.67 µM and 17.7 µM | 1.77 µM | 3.95 µM and 19.7 µM | 2.1 µM and 5.52 µM | 3.96 µM and 12.3 µM | 1.61 µM and 2.55 µM | 3.02 µM and 6.62 µM | 1.66 µM and 8.47 µM | 4.54 µM and 22.7 µM | – | 25.6 µM | 1.51 µM and 6.66 µM | 2.97 µM and 20.3 µM | 1.74 µM | 3.51 µM and 22.8 µM | 1.5 µM | 2.97 µM and 23.4 µM | 1.48 µM and 7.32 µM | 3.14 µM and 21.9 µM
